In patent US20060069132A1, “Azolecarboxamide herbicides” (priority 2004, published 2006):

Key:
Assay in all cases: Test C postemergence herbicide test
[1] = tested on: winter barley; assay type: in vivo, Hordeum vulgare; conditions: for Barley, Winter plant response rating: 500 g ai/ha
Method in brief: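 Scoring by eye, 12–14 days post-treatment, greenhouse-held plants vs. controls; 0 no effect, 100 complete control. Sprayed at 1–4 leaves (2–18 cm); paddy barnyardgrass at 2 leaves, flooded.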

[2] = tested on: blackgrass; assay type: in vivo, Alopecurus myosuroides; conditions: for Blackgrass plant response rating: 500 g ai/ha
Method in brief: (§1)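 Weeds and wheat were sprayed after emergence, at a height of 2 to 18 cm (1–4 leaves), and paddy barnyardgrass was flooded and treated at two leaves. Assessment took place 12–14 days later in the greenhouse on a 0-to-100 visual control scale. A dash means no result was obtained.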

[3] = tested on: canarygrass; assay type: in vivo, Phalaris minor
Method in brief: as §1

[4] = tested on: Italian ryegrass; assay type: in vivo, Lolium multiflorum
Method in brief: as §1

[5] = tested on: wild oat; assay type: in vivo, Avenafatua
Method in brief: as §1

[6] = tested on: green foxtail; assay type: in vivo, Setaria viridis
Method in brief: as §1

[7] = tested on: windgrass; assay type: in vivo, Apera spica-venti
Method in brief: as §1

[8] = tested on: downy bromegrass; assay type: in vivo, Bromus tectorum
Method in brief: as §1

[9] = tested on: wheat; assay type: in vivo, Triticum aestivum
Method in brief: as §1

[10] = Postemergence, 250 g ai/ha, scale 0 to 100, 0 no effect, 100 complete control
[11] = postemergence, 125 g ai/ha, scale 0 to 100 (0 no effect, 100 complete control)
[12] = postemergence, 31 g ai/ha, scale 0 to 100
[13] = postemergence, 62 g ai/ha, scale 0 to 100 (0 no effect, 100 complete control)
[14] = postemergence, 125 g ai/ha, scale 0 to 100
[15] = postemergence, 62 g ai/ha, scale 0 to 100
[16] = Postemergence, 500 g ai/ha, scale 0 to 100
[17] = Postemergence, 500 g ai/ha, scale 0 to 100, 0 no effect, 100 complete control

| SMILES | Plant response rating, Barley, Winter [1, 10] | Plant response rating, Barley, Winter [1, 11] | Plant response rating, Barley, Winter [1, 13] | Plant response rating, Blackgrass [2, 10] | Plant response rating, Blackgrass [2, 14] | Plant response rating, Blackgrass [2, 15] | Plant response rating, Canarygrass [3, 10] | Plant response rating, Canarygrass [3, 14] | Plant response rating, Canarygrass [3, 15] | Plant response rating, Ryegrass, Italian [4, 14] | Plant response rating, Ryegrass, Italian [4, 15] | Plant response rating, Oat, Wild [5, 14] | Plant response rating, Oat, Wild [5, 15] | Plant response rating, Foxtail, Green [6, 10] | Plant response rating, Foxtail, Green [6, 14] | Plant response rating, Foxtail, Green [6, 15] | Plant response rating, Windgrass [7, 14] | Plant response rating, Windgrass [7, 15] | Plant response rating, Bromegrass, Downy [8, 10] | Plant response rating, Bromegrass, Downy [8, 15] | further results |
| --- | --- | --- | --- | --- | --- | --- | --- | --- | --- | --- | --- | --- | --- | --- | --- | --- | --- | --- | --- | --- | --- |
| CCOC(=O)c1ccc(F)c(NC(=O)c2cc(C3(C)CC3)nn2CC)c1 [Compound 296] | 45 | 40 | 35 | 75 | 65 | 60 | 55 | 40 | 30 | 45 | 35 | 60 | 35 | 60 | 50 | 40 | 50 | 45 | 45 | 35 | Plant response rating, Barley, Winter [1, 12]: 30; Plant response rating, Blackgrass [2, 12]: 45; Plant response rating, Canarygrass [3, 12]: 30; Plant response rating, Ryegrass, Italian [4, 10]: 65; Plant response rating, Oat, Wild [5, 10]: 60; Plant response rating, Windgrass [7, 10]: 65; Plant response rating, Bromegrass, Downy [8, 14]: 35; Plant response rating, Bromegrass, Downy [8, 12]: 25; Plant response rating, Wheat [9, 10]: 40; Plant response rating, Wheat [9, 14]: 35; Plant response rating, Wheat [9, 15]: 35 |
| CCn1nc(C2(C)CC2)cc1C(=O)Nc1cccc(C(=O)N2CC=CC2)c1 [Compound 304] | 35 | 35 | 35 | 70 | 50 | 60 | 45 | 40 | 40 | 50 | 50 | 60 | 60 | 50 | 45 | 40 | 35 | 35 | 40 | 40 | Barley, Winter plant response rating ([1]; Postemergence, scale 0 to 100): 45; Blackgrass plant response rating ([2]; Postemergence, scale 0 to 100): 95; Canarygrass plant response rating [3, 16]: 45; Ryegrass, Italian plant response rating [4, 16]: 50; Plant response rating, Ryegrass, Italian [4, 10]: 50; Oat, Wild plant response rating [5, 16]: 70; Plant response rating, Oat, Wild [5, 10]: 60; Foxtail, Green plant response rating [6, 16]: 60; Windgrass plant response rating [7, 16]: 45; Plant response rating, Windgrass [7, 10]: 40; Bromegrass, Downy plant response rating [8, 16]: 50; Plant response rating, Bromegrass, Downy [8, 14]: 40; Wheat plant response rating [9, 16]: 40; Plant response rating, Wheat [9, 10]: 40; Plant response rating, Wheat [9, 14]: 40; Plant response rating, Wheat [9, 15]: 35 |
| CCn1nc(C(C)(C)C)cc1C(=O)Nc1cccc(OC(F)(F)C(F)F)c1 [Compound 333] | 55 | 45 | 40 | 50 | 40 | 30 | 40 | 35 | 35 | 35 | 35 | 60 | 50 | 50 | 40 | 30 | 25 | 20 | 45 | 40 | Blackgrass plant response rating ([2]; Postemergence, scale 0 to 100): 55; Canarygrass plant response rating [3, 16]: 45; Ryegrass, Italian plant response rating [4, 16]: 55; Plant response rating, Ryegrass, Italian [4, 10]: 50; Oat, Wild plant response rating [5, 16]: 55; Plant response rating, Oat, Wild [5, 10]: 60; Foxtail, Green plant response rating [6, 16]: 65; Windgrass plant response rating [7, 16]: 80; Plant response rating, Windgrass [7, 10]: 50; Bromegrass, Downy plant response rating [8, 16]: 45; Wheat plant response rating [9, 16]: 55; Plant response rating, Wheat [9, 10]: 50; Plant response rating, Wheat [9, 14]: 50; Plant response rating, Wheat [9, 15]: 40 |
| CCNC(=O)c1cccc(NC(=O)c2nn(C(C)(C)CC)nc2CC)c1 [Compound 376] | 30 | 20 | 20 | 50 | 40 | 40 | 55 | 50 | 45 | 55 | 45 | 45 | 40 | 60 | 60 | 40 | 40 | 40 | 40 | 35 | Barley, Winter plant response rating ([1]; Postemergence, scale 0 to 100): 40; Blackgrass plant response rating ([2]; Postemergence, scale 0 to 100): 65; Plant response rating, Canarygrass [3, 17]: 65; Plant response rating, Ryegrass, Italian [4, 17]: 65; Plant response rating, Oat, Wild [5, 17]: 60; Plant response rating, Foxtail, Green [6, 17]: 65; Plant response rating, Windgrass [7, 17]: 65; Plant response rating, Bromegrass, Downy [8, 17]: 50; Plant response rating, Bromegrass, Downy [8, 14]: 35; Plant response rating, Wheat [9, 17]: 25; Plant response rating, Wheat [9, 14]: 20; Plant response rating, Wheat [9, 15]: 20 |
| C#CCNC(=O)c1cccc(NC(=O)c2nn(C(C)(C)C)nc2CC)c1 [Compound 380] | 30 | 20 | 20 | 55 | 45 | 40 | 45 | 40 | 40 | 50 | 45 | 60 | 55 | 60 | 60 | 60 | 60 | 45 | 65 | 55 | Plant response rating, Barley, Winter [1, 12]: 10; Plant response rating, Blackgrass [2, 12]: 40; Plant response rating, Canarygrass [3, 12]: 30; Plant response rating, Bromegrass, Downy [8, 14]: 60; Plant response rating, Bromegrass, Downy [8, 12]: 45; Plant response rating, Wheat [9, 14]: 25; Plant response rating, Wheat [9, 15]: 20 |
| C#CCOc1cccc(NC(=O)c2cc(C(C)(C)C)nn2CC)c1 [Compound 411] | 35 | 35 | 30 | 65 | 65 | 50 | 65 | 60 | 60 | 60 | 45 | 60 | 60 | 65 | 65 | 60 | 55 | 40 | 45 | 40 | Barley, Winter plant response rating ([1]; Postemergence, scale 0 to 100): 40; Blackgrass plant response rating ([2]; Postemergence, scale 0 to 100): 70; Plant response rating, Canarygrass [3, 17]: 65; Plant response rating, Ryegrass, Italian [4, 17]: 65; Plant response rating, Oat, Wild [5, 17]: 65; Plant response rating, Foxtail, Green [6, 17]: 70; Plant response rating, Windgrass [7, 17]: 65; Plant response rating, Bromegrass, Downy [8, 17]: 45; Plant response rating, Bromegrass, Downy [8, 14]: 40; Plant response rating, Wheat [9, 17]: 55; Plant response rating, Wheat [9, 14]: 35; Plant response rating, Wheat [9, 15]: 35 |
